Data taken from patent publication US6855669B2, “Use of α,β unsaturated aliphatic aldehydes and ketones to inhibit potato tuber sprouting” (Washington State University Research Foundation, priority 2000, dated 2005).

Columns and labels:
[1] = tested on: Russet Burbank and Ranger Russet seed-tubers; test: Example 5: sprout inhibition by C5 to C9 trans-2 aldehydes over prolonged storage (17 weeks); assay type: in vivo, Solanum tuberosum; conditions: 0.5, 0.75 and 1.0 mmol/kg tuber, 24 hours; 17 weeks at 8° C., 95% RH
Method: (46° F.), 95% relative humidity (RH), for 17 weeks. As described more fully in Example 5, four-month-old tubers (previously stored at 4° C.) were treated (for 24 h) with different concentrations of the aldehydes in mid January. The treated tubers were then stored in the dark for 120 days (17 weeks).
Methods: Four-month-old Russet Burbank and Ranger Russet seed-tubers were taken from a 4° C. storage area and treated (Jan. 10, 2001) separately with 0, 0.5, 0.75 and 1.0 mmol/kg tuber of trans-2-pentenal, trans-2-hexenal, trans-2-heptenal, trans-2-octenal, and trans-2-nonenal in 3.9 L glass jars. The volume of inhibitor required to achieve the above rates was pipetted onto filter paper discs inside the lids of each jar. The concentration of inhibitors in the headspace of the jars was equal at 0.16 mmol/L. The tubers were enclosed in the jars and thus exposed to inhibitor vapor for 24 hours at 23° C. Control tubers were enclosed in a glass jar without any aldehyde. Following treatment, tubers were removed from the jars and placed at 8° C. (46° F.) (95% relative humidity) in the dark to sprout for 120 days (17 weeks). The experiment was set up in a randomized complete block design (5 replicates) with chemicals and concentrations arranged factorially. Effects of the aliphatic aldehydes on the development of etiolated sprouts were documented photographically and quantitatively (sprout number and fresh weight) after 120 days of storage.

Umatilla seed-tubers = test: Example 2: etiolated sprout development and tuber quality, Umatilla; assay type: in vivo, Solanum tuberosum; conditions: 4.7 mmol/kg potato tubers, 25 days
Method: Methods: Ten-month-old Ranger Russet, Umatilla and Russet Burbank seed-tubers were taken from 4° C. storage and treated with trans-2-hexenal in 9.2-L glass desiccators as described in Example 1. The tubers were exposed to trans-2-hexenal for 0, 12 and 24 hours at 23° C. at a concentration of 4.7 mmol/kg potato tubers. Regardless of exposure time, all tubers remained enclosed in the chambers for the entire 24 hour period. This was accomplished by introducing the trans-2-hexenal at zero-time (into the 24 hour treatment desiccator) and after 12 hour incubation (into the 12 hour treatment desiccator) through a septum in the top of the closed desiccator. The treated tubers were planted into moistened peat/perlite/soil potting mix and placed in the dark at 24° C. to stimulate sprouting. The experiment was set up in a randomized complete block design (5 replicates) with treatments (3 cultivars×3 exposure times) arranged factorially. Effects of trans-2-hexenal exposure and cultivar on etiolated sprout development and tuber quality were assessed 25 days after removal from the 4° C. storage.

Which results are given for CCC/C=C/C=O [trans-2-hexenal]?
inhibition of sprout development (in words) [1]: inhibited sprouting in a concentration-dependent manner; Average Sprout Length (Umatilla seed-tubers; 12 h exposure): 0 cm/tuber; External Pit Rating (1-4 scale) (Umatilla seed-tubers; 12 h exposure): 3.7; Soft Rot Lesions (Umatilla seed-tubers; 12 h exposure): 2.2 no/tuber; Sprout Fresh Weight (Umatilla seed-tubers; 12 h exposure): 0 g/tuber; Average Sprout Length (Umatilla seed-tubers; 24 h exposure): 0 cm/tuber; External Pit Rating (1-4 scale) (Umatilla seed-tubers; 24 h exposure): 4.0; Soft Rot Lesions (Umatilla seed-tubers; 24 h exposure): 2.6 no/tuber; Sprout Fresh Weight (Umatilla seed-tubers; 24 h exposure): 0 g/tuber
